According to publication PMC5218480 (PLoS ONE, 2017):

System: MV-4-11 cells
Assay: Gene expression microarray analysis (Affymetrix PrimeView) and GSEA
Format: cell-based, human
Design: RFU PODN (11730768_x_at) / Fold change /veh PODN (11730768_x_at) / RFU LINC00158 (11744669_a_at) / Fold change /veh LINC00158 (11744669_a_at) / RFU DUSP10 (11751237_a_at) / Fold change /veh DUSP10 (11751237_a_at) / RFU ID3 (11757404_x_at) / Fold change /veh ID3 (11757404_x_at) / RFU PLEKHG5 (11737974_s_at) / Fold change /veh PLEKHG5 (11737974_s_at) / RFU LRRC4B (11730491_at) / Fold change /veh LRRC4B (11730491_at) / RFU GIMAP4 (11747438_a_at) / Fold change /veh GIMAP4 (11747438_a_at) / RFU KRT8 (11758183_x_at) / Fold change /veh KRT8 (11758183_x_at) / RFU CNN1 (11734310_a_at) / Fold change /veh CNN1 (11734310_a_at) / RFU VPS37D (11726825_at) / Fold change /veh VPS37D (11726825_at) / RFU C10orf10 (11716522_x_at) / Fold change /veh C10orf10 (11716522_x_at) / RFU KIR2DL2 /// KIR2DL4 /// KIR2DL5A /// KIR2DL5B /// KIR2DS1 /// KIR2DS2 /// KIR2DS3 /// KIR2DS4 /// KIR3DL3 /// KIR3DL3 /// KIR3DS1 (11738374_at) / Fold change /veh KIR2DL2 /// KIR2DL4 /// KIR2DL5A /// KIR2DL5B /// KIR2DS1 /// KIR2DS2 /// KIR2DS3 /// KIR2DS4 /// KIR3DL3 /// KIR3DL3 /// KIR3DS1 (11738374_at) / RFU C1QL1 (11718748_at) / Fold change /veh C1QL1 (11718748_at) / RFU TMPRSS4 (11747572_a_at) / Fold change /veh TMPRSS4 (11747572_a_at) / RFU HAMP (11756126_x_at) / Fold change /veh HAMP (11756126_x_at) / RFU RNFT2 (11725882_a_at) / Fold change /veh RNFT2 (11725882_a_at) / RFU NR4A2 (11747474_a_at) / Fold change /veh NR4A2 (11747474_a_at) / RFU ABCC12 (11746883_a_at) / Fold change /veh ABCC12 (11746883_a_at) / RFU TMEM136 (11760407_x_at) / Fold change /veh TMEM136 (11760407_x_at) / RFU CLDN22 /// WWC2 (11732394_at) / Fold change /veh CLDN22 /// WWC2 (11732394_at) / RFU HLA-DPB1 (11760878_x_at) / Fold change /veh HLA-DPB1 (11760878_x_at) / RFU SPINT1 (11716480_a_at) / Fold change /veh SPINT1 (11716480_a_at) / RFU GAP43 (11754022_s_at) / Fold change /veh GAP43 (11754022_s_at) / RFU A4GNT (11735810_at) / Fold change /veh A4GNT (11735810_at) / RFU PRB3 (11715151_x_at) / Fold change /veh PRB3 (11715151_x_at) / RFU TUBB4B (11761932_at) / Fold change /veh TUBB4B (11761932_at) / RFU CAPN14 (11732068_a_at) / Fold change /veh CAPN14 (11732068_a_at) / RFU TMCC2 (11721928_a_at) / Fold change /veh TMCC2 (11721928_a_at) / RFU IRGQ (11745062_a_at) / Fold change /veh IRGQ (11745062_a_at) / RFU FAM174B (11720279_a_at) / Fold change /veh FAM174B (11720279_a_at) / RFU TMPRSS4 (11748680_a_at) / Fold change /veh TMPRSS4 (11748680_a_at) / RFU FAM212B (11763350_a_at) / Fold change /veh FAM212B (11763350_a_at) / RFU PLEKHG5 (11743358_a_at) / Fold change /veh PLEKHG5 (11743358_a_at) / RFU ZSCAN30 (11745921_a_at) / Fold change /veh ZSCAN30 (11745921_a_at) / RFU CMKLR1 (11741424_a_at) / Fold change /veh CMKLR1 (11741424_a_at) / RFU LOC101060620 /// MAPK8IP1 (11723275_at) / Fold change /veh LOC101060620 /// MAPK8IP1 (11723275_at) / RFU SPTSSB (11747773_x_at) / Fold change /veh SPTSSB (11747773_x_at) / RFU PRSS12 (11739890_at) / Fold change /veh PRSS12 (11739890_at) / RFU BIN1 (11741810_x_at) / Fold change /veh BIN1 (11741810_x_at) / RFU WNT11 (11732464_a_at) / Fold change /veh WNT11 (11732464_a_at) / RFU C10orf10 (11716521_a_at) / Fold change /veh C10orf10 (11716521_a_at) / RFU C5orf56 (11738089_at) / Fold change /veh C5orf56 (11738089_at) / RFU CYB561 (11721691_x_at) / Fold change /veh CYB561 (11721691_x_at) / RFU ANKRD19P (11752326_a_at) / Fold change /veh ANKRD19P (11752326_a_at) / RFU OR2T12 /// OR2T33 /// OR2T8 (11738714_s_at) / Fold change /veh OR2T12 /// OR2T33 /// OR2T8 (11738714_s_at) / RFU VCAN (11748164_a_at) / Fold change /veh VCAN (11748164_a_at) / RFU JSRP1 (11732532_at) / Fold change /veh JSRP1 (11732532_at) / RFU KRTAP10-11 (11738290_x_at) / Fold change /veh KRTAP10-11 (11738290_x_at) / RFU MYO3A (11730013_a_at) / Fold change /veh MYO3A (11730013_a_at) / RFU EBF3 (11725865_a_at) / Fold change /veh EBF3 (11725865_a_at) / RFU CAMK2N1 (11719241_x_at) / Fold change /veh CAMK2N1 (11719241_x_at) / RFU C5orf56 (11738088_a_at) / Fold change /veh C5orf56 (11738088_a_at) / RFU OLFML3 (11715873_a_at) / Fold change /veh OLFML3 (11715873_a_at) / RFU LOC100653217 /// NTM (11731650_a_at) / Fold change /veh LOC100653217 /// NTM (11731650_a_at) / RFU MAPK11 (11762145_a_at) / Fold change /veh MAPK11 (11762145_a_at) / RFU FIZ1 (11724087_x_at) / Fold change /veh FIZ1 (11724087_x_at) / RFU OASL (11726364_x_at) / Fold change /veh OASL (11726364_x_at) / RFU SOX15 (11748057_x_at) / Fold change /veh SOX15 (11748057_x_at) / RFU CD79A (11719716_a_at) / Fold change /veh CD79A (11719716_a_at) / RFU HIST1H1D (11736915_at) / Fold change /veh HIST1H1D (11736915_at) / RFU CASKIN2 (11723855_a_at) / Fold change /veh CASKIN2 (11723855_a_at) / RFU LOC730098 (11760151_x_at) / Fold change /veh LOC730098 (11760151_x_at) / RFU OR4N2 (11742367_at) / Fold change /veh OR4N2 (11742367_at) / RFU PRRT2 (11749266_a_at) / Fold change /veh PRRT2 (11749266_a_at) / RFU SNX32 (11753110_a_at) / Fold change /veh SNX32 (11753110_a_at) / RFU CDHR5 (11726645_a_at) / Fold change /veh CDHR5 (11726645_a_at) / RFU RCAN1 (11760418_a_at) / Fold change /veh RCAN1 (11760418_a_at) / RFU FAM167A (11723789_a_at) / Fold change /veh FAM167A (11723789_a_at) / RFU FAM26E (11764081_at) / Fold change /veh FAM26E (11764081_at) / RFU ISYNA1 (11749810_s_at) / Fold change /veh ISYNA1 (11749810_s_at) / RFU ACY1 (11761880_at) / Fold change /veh ACY1 (11761880_at) / RFU 11764098_at / Fold change /veh 11764098_at / RFU SAMD14 (11745864_x_at) / Fold change /veh SAMD14 (11745864_x_at) / RFU NPB (11741838_a_at) / Fold change /veh NPB (11741838_a_at) / RFU TMPRSS6 (11731388_a_at) / Fold change /veh TMPRSS6 (11731388_a_at) / RFU KRTAP10-2 (11738614_at) / Fold change /veh KRTAP10-2 (11738614_at) / RFU ARHGAP8 /// PRR5-ARHGAP8 (11727945_x_at) / Fold change /veh ARHGAP8 /// PRR5-ARHGAP8 (11727945_x_at) / RFU KRTAP5-7 /// NADSYN1 (11734609_at) / Fold change /veh KRTAP5-7 /// NADSYN1 (11734609_at) / RFU RASL12 (11751679_a_at) / Fold change /veh RASL12 (11751679_a_at) / RFU CDKN2B (11736163_a_at) / Fold change /veh CDKN2B (11736163_a_at) / RFU PRF1 (11729649_at) / Fold change /veh PRF1 (11729649_at) / RFU, ZNF638 /// ZNF638-IT1 / Fold change vs veh, ZNF638 /// ZNF638-IT1 / RFU, PANK3 / Fold change vs veh, PANK3 / RFU, SH3YL1 / Fold change vs veh, SH3YL1 / RFU, ZEB2 / Fold change vs veh, ZEB2 / RFU, NRIP1 / Fold change vs veh, NRIP1 / RFU, PTTG1IP / Fold change vs veh, PTTG1IP / RFU, CAPN2 / Fold change vs veh, CAPN2 / RFU, MED14 / Fold change vs veh, MED14 / RFU, SNORA58 / Fold change vs veh, SNORA58 / RFU, C1orf63 / Fold change vs veh, C1orf63 / RFU, LRRFIP1 / Fold change vs veh, LRRFIP1 / RFU, NDUFAF7 / Fold change vs veh, NDUFAF7 / RFU, SLC12A2 / Fold change vs veh, SLC12A2 / RFU, IBTK / Fold change vs veh, IBTK / RFU, ESF1 / Fold change vs veh, ESF1 / Fold change vs veh, TMEM50B / RFU, TAOK1 / Fold change vs veh, TAOK1 / RFU, ACBD3 / Fold change vs veh, ACBD3 / RFU, TMA16 / Fold change vs veh, TMA16 / RFU, RWDD3 / Fold change vs veh, RWDD3 / RFU, BCAT1 / Fold change vs veh, BCAT1 / RFU, EDEM3 / Fold change vs veh, EDEM3 / RFU, TMEM33 / Fold change vs veh, TMEM33 / RFU, WDR75 / Fold change vs veh, WDR75 / RFU, AHCTF1 / Fold change vs veh, AHCTF1 / RFU, TFRC / Fold change vs veh, TFRC / RFU, ZDHHC17 / Fold change vs veh, ZDHHC17 / RFU, NOM1 / Fold change vs veh, NOM1 / RFU, ARL8B / Fold change vs veh, ARL8B / RFU, ZBTB11 / Fold change vs veh, ZBTB11 / RFU, TAMM41 / Fold change vs veh, TAMM41 / RFU, KIAA1704 /// LOC100996395 / Fold change vs veh, KIAA1704 /// LOC100996395 / RFU, ING1 / Fold change vs veh, ING1 / RFU, TRMT61B / Fold change vs veh, TRMT61B / RFU, FUBP3 / Fold change vs veh, FUBP3 / RFU, TP53 / Fold change vs veh, TP53 / RFU, TNKS2 / Fold change vs veh, TNKS2 / RFU, ZFP14 / Fold change vs veh, ZFP14 / RFU, ACTR2 / Fold change vs veh, ACTR2 / RFU, PPP3R1 / Fold change vs veh, PPP3R1 / RFU, PIK3R1 / Fold change vs veh, PIK3R1 / RFU, HNRNPA1 / Fold change vs veh, HNRNPA1 / RFU, RNF170 / Fold change vs veh, RNF170 / RFU, ZNF28 / Fold change vs veh, ZNF28 / RFU, RNGTT / Fold change vs veh, RNGTT / RFU, OGT / Fold change vs veh, OGT / RFU, BRD1 / Fold change vs veh, BRD1 / RFU, MARS / Fold change vs veh, MARS / RFU, ZNF655 / Fold change vs veh, ZNF655 / RFU, FAHD1 / Fold change vs veh, FAHD1 / RFU, BDP1 / Fold change vs veh, BDP1 / RFU, LRRCC1 / Fold change vs veh, LRRCC1 / RFU, ARID1A / Fold change vs veh, ARID1A / RFU, ZNF146 / Fold change vs veh, ZNF146 / RFU, ZNF330 / Fold change vs veh, ZNF330 / RFU, GPN3 / Fold change vs veh, GPN3 / RFU, C9orf123 / Fold change vs veh, C9orf123 / RFU, N4BP2L2 / Fold change vs veh, N4BP2L2 / RFU, ARFIP1 / Fold change vs veh, ARFIP1 / RFU, FAM179B / Fold change vs veh, FAM179B / RFU, BCL10 / Fold change vs veh, BCL10 / RFU, UHRF1BP1L / Fold change vs veh, UHRF1BP1L / RFU, BET1 / Fold change vs veh, BET1 / RFU, CNOT2 / Fold change vs veh, CNOT2 / RFU, ZNF268 / Fold change vs veh, ZNF268 / Fold change vs veh, ZNF507 / RFU, DGCR2 / Fold change vs veh, DGCR2 / RFU, WDSUB1 / Fold change vs veh, WDSUB1 / Fold change vs veh, HSP90B1 /// MIR3652 / RFU, ADSS / Fold change vs veh, ADSS / RFU, GK / Fold change vs veh, GK / RFU, ZNF148 / Fold change vs veh, ZNF148 / RFU, TAF9 / Fold change vs veh, TAF9 / RFU, SLC1A5 / Fold change vs veh, SLC1A5 / RFU, SLMO2 / Fold change vs veh, SLMO2 / RFU, ABCC4 / Fold change vs veh, ABCC4 / RFU, LOC101060439 /// RAP1B / Fold change vs veh, LOC101060439 /// RAP1B / RFU, RFX7 / Fold change vs veh, RFX7 / RFU, GTPBP10 / Fold change vs veh, GTPBP10 / RFU, CNEP1R1 / Fold change vs veh, CNEP1R1 / RFU, BIVM-ERCC5 /// ERCC5 / Fold change vs veh, BIVM-ERCC5 /// ERCC5 / RFU, ILF3 / Fold change vs veh, ILF3 / RFU 11762660_at / Fold change /veh 11762660_at / RFU VCAN (11757783_s_at) / Fold change /veh VCAN (11757783_s_at) / RFU DDX43 (11728927_at) / Fold change /veh DDX43 (11728927_at) / RFU KRT8 (11758188_x_at) / Fold change /veh KRT8 (11758188_x_at) / RFU NKD1 (11759106_at) / Fold change /veh NKD1 (11759106_at) / RFU SRD5A1 (11742802_a_at) / Fold change /veh SRD5A1 (11742802_a_at) / RFU TPSAB1 /// TPSB2 (11721975_s_at) / Fold change /veh TPSAB1 /// TPSB2 (11721975_s_at) / RFU GSTM3 (11746129_a_at) / Fold change /veh GSTM3 (11746129_a_at) / RFU IL23R (11737362_x_at) / Fold change /veh IL23R (11737362_x_at) / RFU TMEM51 (11727254_a_at) / Fold change /veh TMEM51 (11727254_a_at) / RFU PIWIL2 (11732686_x_at) / Fold change /veh PIWIL2 (11732686_x_at) / RFU ORM1 (11744905_x_at) / Fold change /veh ORM1 (11744905_x_at) / RFU CCDC152 (11743942_at) / Fold change /veh CCDC152 (11743942_at) / RFU ECM1 (11717891_a_at) / Fold change /veh ECM1 (11717891_a_at) / RFU IL23R (11748794_a_at) / Fold change /veh IL23R (11748794_a_at) / RFU TNFAIP8L3 (11732012_x_at) / Fold change /veh TNFAIP8L3 (11732012_x_at) / RFU MBOAT4 (11741988_at) / Fold change /veh MBOAT4 (11741988_at) / RFU 11764193_at / Fold change /veh 11764193_at / RFU TMEM53 (11763286_at) / Fold change /veh TMEM53 (11763286_at) / RFU MAGEB2 (11727129_at) / Fold change /veh MAGEB2 (11727129_at) / RFU TMEM200A (11744735_a_at) / Fold change /veh TMEM200A (11744735_a_at) / RFU CCDC152 (11751479_a_at) / Fold change /veh CCDC152 (11751479_a_at) / RFU FAM211A (11726209_a_at) / Fold change /veh FAM211A (11726209_a_at) / RFU RGS16 (11746705_a_at) / Fold change /veh RGS16 (11746705_a_at) / RFU VCAN (11755009_s_at) / Fold change /veh VCAN (11755009_s_at) / RFU RHOB (11743442_s_at) / Fold change /veh RHOB (11743442_s_at) / RFU RGS16 (11720943_a_at) / Fold change /veh RGS16 (11720943_a_at) / RFU RGS16 (11720944_at) / Fold change /veh RGS16 (11720944_at) / RFU, VPS4B / Fold change vs veh, VPS4B / RFU, CREB1 / Fold change vs veh, CREB1 / RFU, DNAJC13 / Fold change vs veh, DNAJC13 / RFU, GNAQ / Fold change vs veh, GNAQ / RFU, CDK5R1 / Fold change vs veh, CDK5R1 / RFU, ZRANB3 / Fold change vs veh, ZRANB3 / RFU, CUL4A / Fold change vs veh, CUL4A / RFU, CCNY / Fold change vs veh, CCNY / RFU, UFL1 / Fold change vs veh, UFL1 / RFU, COG3 / Fold change vs veh, COG3 / RFU, DIAPH2 / Fold change vs veh, DIAPH2 / RFU, SKA2 / Fold change vs veh, SKA2 / RFU, AFF3 / Fold change vs veh, AFF3 / RFU, LMF1 / Fold change vs veh, LMF1 / RFU, IPO11 / Fold change vs veh, IPO11 / RFU, DFFB / Fold change vs veh, DFFB / RFU, FOXP1 / Fold change vs veh, FOXP1 / RFU, CARD8 / Fold change vs veh, CARD8 / RFU, STRN3 / Fold change vs veh, STRN3 / RFU, ADK / Fold change vs veh, ADK / RFU, RASSF2 / Fold change vs veh, RASSF2 / RFU, WIPF1 / Fold change vs veh, WIPF1 / RFU, LARP1B / Fold change vs veh, LARP1B / RFU, RASA1 / Fold change vs veh, RASA1 / RFU, RB1 / Fold change vs veh, RB1 / RFU, PPFIA1 / Fold change vs veh, PPFIA1 / RFU, MAT2A / Fold change vs veh, MAT2A / RFU, CCT5 / Fold change vs veh, CCT5 / RFU, WDR92 / Fold change vs veh, WDR92 / RFU, CUX1 / Fold change vs veh, CUX1 / RFU, TTC7A / Fold change vs veh, TTC7A / RFU, TMEM135 / Fold change vs veh, TMEM135 / RFU, DEPTOR / Fold change vs veh, DEPTOR / RFU, CPM / Fold change vs veh, CPM / RFU, DNAJB6 / Fold change vs veh, DNAJB6 / RFU, CACNA2D3 / Fold change vs veh, CACNA2D3 / RFU, DTX4 / Fold change vs veh, DTX4 / RFU, TFCP2 / Fold change vs veh, TFCP2 / RFU, GMCL1 /// GMCL1P1 / Fold change vs veh, GMCL1 /// GMCL1P1 / RFU, AEBP2 / Fold change vs veh, AEBP2 / RFU, SNHG1 /// SNORD22 /// SNORD25 /// SNORD26 /// SNORD27 /// SNORD28 /// SNORD29 /// SNORD31 / Fold change vs veh, SNHG1 /// SNORD22 /// SNORD25 /// SNORD26 /// SNORD27 /// SNORD28 /// SNORD29 /// SNORD31 / Fold change (Aza/veh), C12orf56 (ProbeSet 11735607_a_at) / Fold change (ACY-1035/veh), C12orf56 (ProbeSet 11735607_a_at) / Fold change (Aza/veh), FGFR1OP (ProbeSet 11751329_s_at) / Fold change (ACY-1035/veh), FGFR1OP (ProbeSet 11751329_s_at) / Fold change (Aza/veh), VPS36 (ProbeSet 11739960_a_at) / Fold change (ACY-1035/veh), VPS36 (ProbeSet 11739960_a_at) / RFU SYPL1 (11715823_x_at) / Fold change /veh SYPL1 (11715823_x_at) / RFU IGFBP7 (11715501_s_at) / Fold change /veh IGFBP7 (11715501_s_at) / RFU REEP3 (11722064_at) / Fold change /veh REEP3 (11722064_at) / RFU IGLL1 (11728026_x_at) / Fold change /veh IGLL1 (11728026_x_at): dose or concentration left out as unconfirmed
Details: ProbeSet 11732154_at; LIST B

## Nc1ncn([C@@H]2O[C@H](CO)[C@@H](O)[C@H]2O)c(=O)n1 [azacitidine]
  RFU, OGT: 289.66 RFU
